Measured values: paper PMC12458359 (bioRxiv, 2025)
Read-outs that look alike come from different tables or passages of the source.

What was measured:
Test in all cases: radiometric enzymatic assay
Assay type in all cases: biochemical
CK1γ2 [1] = target: T1, CK1γ2 (Homo sapiens, UniProt P78368); details: read-out: Enzymatic IC50 CK1γ2
CK1γ1 [2] = target: T2, CK1γ1 (Homo sapiens, UniProt Q9HCP0); details: read-out: Enzymatic IC50 CK1γ1
CK1γ2 [3] = target: T1, CK1γ2; details: read-out: Enzymatic IC50 CK1γ2; remark: listed apart in the source
CK1γ1 [4] = target: T2, CK1γ1; details: read-out: Enzymatic IC50 CK1γ1; remark: listed apart in the source
CK1γ1 [5] = target: T2, CK1γ1; details: read-out: NB IC50 CK1γ3
CK1γ2 [6] = target: T1, CK1γ2; details: read-out: Enzymatic IC50 CK1γ2; remark: listed apart in the source
CK1γ1 [7] = target: T2, CK1γ1; details: read-out: Enzymatic IC50 CK1γ1; remark: listed apart in the source
CK1γ2 [8] = target: T1, CK1γ2; details: read-out: Enzymatic IC50 CK1γ2; remark: listed apart in the source

T2 sequence (Q9HCP0 whole entry): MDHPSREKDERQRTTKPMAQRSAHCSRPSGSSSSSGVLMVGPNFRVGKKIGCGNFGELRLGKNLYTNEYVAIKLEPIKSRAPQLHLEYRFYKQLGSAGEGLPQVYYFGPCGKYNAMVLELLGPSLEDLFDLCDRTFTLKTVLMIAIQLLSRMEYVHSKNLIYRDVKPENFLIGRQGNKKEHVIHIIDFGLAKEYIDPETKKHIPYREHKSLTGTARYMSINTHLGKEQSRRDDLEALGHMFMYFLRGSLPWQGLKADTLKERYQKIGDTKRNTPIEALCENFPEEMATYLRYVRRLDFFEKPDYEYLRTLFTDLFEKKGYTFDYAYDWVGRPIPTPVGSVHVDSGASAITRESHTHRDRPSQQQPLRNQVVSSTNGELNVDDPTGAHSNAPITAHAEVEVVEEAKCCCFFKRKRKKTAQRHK
T1 sequence (P78368 whole entry): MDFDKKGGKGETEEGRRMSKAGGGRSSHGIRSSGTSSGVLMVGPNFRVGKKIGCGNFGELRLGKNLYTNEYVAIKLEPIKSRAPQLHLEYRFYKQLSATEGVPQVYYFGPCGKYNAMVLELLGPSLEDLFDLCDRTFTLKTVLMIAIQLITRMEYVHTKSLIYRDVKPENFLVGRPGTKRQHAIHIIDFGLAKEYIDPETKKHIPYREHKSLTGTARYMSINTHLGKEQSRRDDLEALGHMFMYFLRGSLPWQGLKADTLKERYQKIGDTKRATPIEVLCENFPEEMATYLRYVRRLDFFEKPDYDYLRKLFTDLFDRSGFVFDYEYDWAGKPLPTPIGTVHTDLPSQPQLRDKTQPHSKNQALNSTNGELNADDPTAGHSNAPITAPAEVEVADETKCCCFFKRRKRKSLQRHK

N#Cc1ccc2nc(Nc3ccc(N4CCOCC4)c(Cl)c3)[nH]c2c1 [compound 14, 2-((3-chloro-4-morpholinophenyl)amino)-1H-benzo[d]imidazole-6-carbonitrile]
IC50 (CK1γ2 [1]): 7 nM
IC50 (CK1γ1 [2]): 28 nM

N#Cc1ccc2nc(Nc3ccc(N4CCOCC4)c(Br)c3)[nH]c2c1 [compound 15, 2-((3-bromo-4-morpholinophenyl)amino)-1H-benzo[d]imidazole-6-carbonitrile]
IC50 (CK1γ2 [3]): 10 nM
IC50 (CK1γ1 [4]): 40 nM

N#Cc1ccc2[nH]c(Nc3ccc(N4CCCCC4)c(Cl)c3)nc2c1 [compound 20, 2-((3-chloro-4-(piperidin-1-yl)phenyl)amino)-1H-benzo[d]imidazole-5-carbonitrile]
IC50 (CK1γ1 [5]): 30 nM
IC50 (CK1γ2 [6]): 9 nM

CN1CCN(c2ccc(Nc3nc4ccc(C#N)cc4[nH]3)cc2Cl)CC1 [compound 21, 2-((3-chloro-4-(4-methylpiperazin-1-yl)phenyl)amino)-1H-benzo[d]imidazole-6-carbonitrile]
IC50 (CK1γ1 [7]): 36 nM
IC50 (CK1γ2 [8]): 14 nM
